The record followed here is US20260042732A1, “Sulfur-containing Compounds and Compositions Thereof for Delivery of Nucleic Acids” (Poseida Therapeutics, Inc., priority 2022, published 2026).

“And” between values parts separate entries of the source, which are not always exact repeats. Identical values can stand only once.

The assay concerns cells in the liver. The experiment in a line: In vivo screening of LNPs comprising fLuciferase mRNA, bioluminescent imaging (BLI). Set-up: species or system BALB/C mice. The note with it: 0.5 mg/kg fLuciferase mRNA intravenously, BLI at 4 hr. On the procedure: To formulate the LNPs, various percentages of one of COMPOUNDS 3, 6, or 12, the phospholipid (DOPE or DOPC), the structural lipid cholesterol (Chol) and 1,2-dimyristoyl-sn-glycerol methoxypolyethylene glycol (DMG-PEG2000; Avanti Polar Lipids, Alabaster, Alabama, USA) were combined to prepare LNP compositions.
Individual 25 mg/ml stock solutions were prepared by solubilizing the lipids in 200-proof HPLC-grade ethanol and stock solutions were stored at −80° C. until formulated. At the time of formulation, the lipid stock solutions were briefly allowed to equilibrate to room temp and then placed on a hot plate maintained at a temperature range of 50-55° C. Subsequently, the hot lipid stock solutions were combined to yield desired final mole percentages.
A 1 mg/ml solution of the 5′-CleanCap-fLuciferase mRNA (TriLink Biotech) to be incorporated into the LNPs was added to 150 mM sodium acetate buffer (pH 5.2) to form a stock solution and kept on ice. The lipid phase was mixed with the aqueous mRNA phase inside a microfluidic chip using a NanoAssemblr® instrument (Precision Nanosystems, Vancouver, BC, Canada) according to the manufacturer's instructions to form LNP compositions comprising encapsulated mRNAs.
The resultant mRNA LNP compositions were then transferred to a Repligen Float-A-Lyzer dialysis device—having a molecular weight cut off (MWCO) of 8-10 kDa (Spectrum Chemical Mfg. Corp, CA, USA) and processed by dialysis against phosphate buffered saline (PBS) (dialysate:dialysis buffer volume at least 1:200 v/v), pH 7.4 overnight at 4° C. (or alternatively room temperature for at least 4 hours), to remove the 25% ethanol and achieve a complete buffer exchange. […]
The location and extent of luciferase expression in treated and control mice were determined at 4 hr by bioluminescent imaging (BLI) of anesthetized mice using an IVIS Lumina in vivo imaging system (Perkin Elmer) according to the manufacturer's instructions. […]

For the compound `CCCCCCCCCCC(CN(CCCN(C)CCCN(CC(CCCCCCCCCC)SSCCO)CC(CCCCCCCCCC)SSCCO)CC(CCCCCCCCCC)SSCCO)SSCCO` (stereo not drawn) [Compound 3], the “Mean Liver Luciferase Flux” value was 2.72E+08 p/s (LNP with 33.5% moles compound, 32% DOPE, 33.5% Chol, 1% PEG-DMG, lipid:RNA 40 w/w); 6.49E+10 p/s (LNP with 43.3% moles compound, 12% DOPC, 43.3% Chol, 1.5% PEG-DMG, lipid:RNA 100 w/w); 1.94E+11 p/s and 1.16E+11 p/s (LNP with 54% moles compound, 10% DOPC, 35% Chol, 1% PEG-DMG, lipid:RNA 100 w/w, 0.5 mg/kg).
